Measurements: ChEMBL document CHEMBL1201862, “PubChem BioAssay data set” (2004)
Active and inactive are the calls of the source.

Key:
[1] = cytotoxicity toward NIH3T3 fibroblasts, dose response, counter-screen, cell-based, ATP luminescence, mouse fibroblasts (AID 2010); type: functional;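 further: cells exposed to compound for about 90 hours before reading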
[2] = target: T1, Streptokinase A (Streptococcus pyogenes serotype M1, UniProt P10520); assay: S. pyogenes streptokinase expression inhibitors, potency, dose response, plasminogen activation absorbance, OD405 (AID 1914); type: functional, Streptococcus pyogenes M1 GAS;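 further: secreted streptokinase activity via plasminogen activation per viability signal from cell pellet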
T1 sequence (P10520 whole entry): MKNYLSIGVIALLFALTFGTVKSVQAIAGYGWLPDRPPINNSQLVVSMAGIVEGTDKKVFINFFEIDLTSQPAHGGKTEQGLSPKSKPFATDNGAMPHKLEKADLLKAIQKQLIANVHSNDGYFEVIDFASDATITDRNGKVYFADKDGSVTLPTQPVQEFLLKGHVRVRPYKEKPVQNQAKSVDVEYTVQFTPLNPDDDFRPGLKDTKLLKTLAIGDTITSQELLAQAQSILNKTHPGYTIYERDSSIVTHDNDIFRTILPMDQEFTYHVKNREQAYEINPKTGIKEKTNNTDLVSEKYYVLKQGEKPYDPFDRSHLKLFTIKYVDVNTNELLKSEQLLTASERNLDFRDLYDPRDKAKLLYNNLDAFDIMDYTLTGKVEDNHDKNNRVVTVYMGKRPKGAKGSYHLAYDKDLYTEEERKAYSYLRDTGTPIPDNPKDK

[3] = tested on: Streptococcus; assay: Group A Streptococcus viability loss, dose response, counter-screen for streptokinase expression inhibitor project, luminescence, BacTiterGlo (AID 1915); type: functional, organism-based;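 further: potency for reduction of bacterial viability or growth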
[4] = target: Genome polyprotein (dengue virus type 2, UniProt P29990); assay: Dengue-2 NS5 methyltransferase inhibitors, primary screen, biochemical, confirmation dose response (AID 588689); type: functional
[5] = target: T2, Bcl-2-like protein 10 (Homo sapiens, UniProt Q9HD36); assay: displacers of TR3 peptide from Bcl-B, primary screen, selectivity assay for Bfl-1 inhibitor project, biochemical, fluorescence polarization, FITC-TR3 peptide (AID 748);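 further: fluorescence polarization from a fluorescein-labelled TR3 peptide binding purified Bcl-B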
T2 sequence (Q9HD36 whole entry): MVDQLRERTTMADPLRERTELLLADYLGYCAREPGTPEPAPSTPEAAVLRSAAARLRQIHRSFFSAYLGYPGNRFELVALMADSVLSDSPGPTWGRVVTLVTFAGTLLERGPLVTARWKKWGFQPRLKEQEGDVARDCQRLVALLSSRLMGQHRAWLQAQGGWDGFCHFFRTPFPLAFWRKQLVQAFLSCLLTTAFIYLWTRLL

[6] = C. albicans growth with fluconazole, confirmation, fluorescence, retest (AID 2467); type: functional, cell-based
[7] = Counterscreen for AddAB inhibitors: absorbance-based bacterial cell-based high throughput dose response assay for inhibitors of bacterial viability. [Related pubchem assays (depositor defined):AID435030, AID449728, AID449731, AID488942, AID488955, AID488956]; type: functional
[8] = target: Large T antigen (Simian virus 40, UniProt P03070); type: functional, Betapolyomavirus macacae;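 further: Confirmatory-stage PubChem screen for compounds that inhibit SV40 T antigen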
[9] = THP-1 cell cytotoxicity, dose response, cytotoxicity control for Vif-APOBEC3G degradation inhibitor project, THP-1 cells (AID 1117359); type: functional; conditions: Human immunodeficiency virus 1, THP-1
[10] = inhibitors of firefly luciferase expression or activity, dose response, H4 neuroglioma cells, luminescence (AID 1990); type: functional, cell-based
[11] = tested on: HeLa; assay: HeLa cell cytotoxicity, dose response, cytotoxicity control, ATP luminescence, cherry-pick samples (AID 687004); type: functional, cell-based; conditions: Homo sapiens
[12] = target: T3, Sentrin-specific protease 8 (Homo sapiens, UniProt Q96LD8); type: functional;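 further: luminescence read-out of SENP8 inhibition, dose-response confirmation following an ultra-high-throughput screen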
T3 sequence (Q96LD8 whole entry): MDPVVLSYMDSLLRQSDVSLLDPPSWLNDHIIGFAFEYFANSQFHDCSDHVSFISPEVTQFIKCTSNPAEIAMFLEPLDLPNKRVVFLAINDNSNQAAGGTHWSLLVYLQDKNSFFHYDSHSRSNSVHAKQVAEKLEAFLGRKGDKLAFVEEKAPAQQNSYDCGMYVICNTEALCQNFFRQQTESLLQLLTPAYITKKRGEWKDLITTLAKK

[13] = target: T4, Aminopeptidase N (Plasmodium falciparum FcB1/Columbia, UniProt O96935); assay: P. falciparum M1AAP inhibitors, biochemical, fluorogenic H-Leu-NHMec substrate, 1536-well (AID 1445); set-up: species or system Plasmodium falciparum 3D7, 3D7
T4 sequence (O96935 whole entry): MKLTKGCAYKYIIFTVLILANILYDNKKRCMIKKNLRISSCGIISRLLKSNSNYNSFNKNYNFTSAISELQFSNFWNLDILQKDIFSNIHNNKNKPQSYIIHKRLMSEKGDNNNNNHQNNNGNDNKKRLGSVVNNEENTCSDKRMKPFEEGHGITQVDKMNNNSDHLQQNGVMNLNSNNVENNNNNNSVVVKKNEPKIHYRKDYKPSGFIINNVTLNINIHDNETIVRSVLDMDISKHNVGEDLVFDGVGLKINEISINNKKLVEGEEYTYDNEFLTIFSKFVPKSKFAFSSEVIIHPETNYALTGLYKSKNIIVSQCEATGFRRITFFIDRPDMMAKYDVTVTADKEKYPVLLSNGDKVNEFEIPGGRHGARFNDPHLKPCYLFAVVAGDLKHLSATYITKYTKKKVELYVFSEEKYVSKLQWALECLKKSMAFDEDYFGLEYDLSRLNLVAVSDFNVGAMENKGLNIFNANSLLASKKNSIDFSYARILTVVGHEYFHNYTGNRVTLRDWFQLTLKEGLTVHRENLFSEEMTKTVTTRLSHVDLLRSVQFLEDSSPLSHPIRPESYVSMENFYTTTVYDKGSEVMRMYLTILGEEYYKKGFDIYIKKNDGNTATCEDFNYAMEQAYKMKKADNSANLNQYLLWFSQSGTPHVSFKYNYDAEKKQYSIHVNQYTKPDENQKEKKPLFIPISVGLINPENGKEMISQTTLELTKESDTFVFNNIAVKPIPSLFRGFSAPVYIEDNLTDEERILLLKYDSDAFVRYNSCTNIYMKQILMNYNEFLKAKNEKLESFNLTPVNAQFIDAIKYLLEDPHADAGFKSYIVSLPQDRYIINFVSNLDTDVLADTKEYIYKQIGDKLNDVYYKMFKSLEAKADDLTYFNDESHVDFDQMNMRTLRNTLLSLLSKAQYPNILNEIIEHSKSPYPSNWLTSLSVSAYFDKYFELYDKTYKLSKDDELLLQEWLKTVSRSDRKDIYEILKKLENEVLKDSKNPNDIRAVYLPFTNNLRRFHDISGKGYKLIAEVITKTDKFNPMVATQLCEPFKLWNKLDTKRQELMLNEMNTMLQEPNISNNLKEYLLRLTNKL

[14] = target: Tyrosyl-DNA phosphodiesterase 2 (Homo sapiens, UniProt O95551); assay: human TDP2 enzyme inhibitors, dose response, biochemical, epi absorbance, IC50 (AID 743297)
[15] = target: Photoreceptor-specific nuclear receptor (Homo sapiens, UniProt Q9Y5X4); type: functional;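 further: potency for compounds that break the NR2E3 corepressor complex and count as activators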
Sequence of Photoreceptor-specific nuclear receptor (Q9Y5X4 whole entry): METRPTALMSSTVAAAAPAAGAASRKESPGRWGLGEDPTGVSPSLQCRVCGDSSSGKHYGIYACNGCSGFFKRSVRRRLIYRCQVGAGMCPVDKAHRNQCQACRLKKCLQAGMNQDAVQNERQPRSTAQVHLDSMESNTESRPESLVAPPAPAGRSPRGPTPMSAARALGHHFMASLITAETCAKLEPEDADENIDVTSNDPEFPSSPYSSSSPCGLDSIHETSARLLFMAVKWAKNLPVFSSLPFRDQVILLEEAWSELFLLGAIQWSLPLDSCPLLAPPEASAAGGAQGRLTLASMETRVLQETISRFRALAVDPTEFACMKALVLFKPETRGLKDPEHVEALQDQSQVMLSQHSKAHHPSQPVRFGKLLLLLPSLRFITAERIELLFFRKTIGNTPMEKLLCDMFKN

Sequence of Tyrosyl-DNA phosphodiesterase 2 (O95551 whole entry): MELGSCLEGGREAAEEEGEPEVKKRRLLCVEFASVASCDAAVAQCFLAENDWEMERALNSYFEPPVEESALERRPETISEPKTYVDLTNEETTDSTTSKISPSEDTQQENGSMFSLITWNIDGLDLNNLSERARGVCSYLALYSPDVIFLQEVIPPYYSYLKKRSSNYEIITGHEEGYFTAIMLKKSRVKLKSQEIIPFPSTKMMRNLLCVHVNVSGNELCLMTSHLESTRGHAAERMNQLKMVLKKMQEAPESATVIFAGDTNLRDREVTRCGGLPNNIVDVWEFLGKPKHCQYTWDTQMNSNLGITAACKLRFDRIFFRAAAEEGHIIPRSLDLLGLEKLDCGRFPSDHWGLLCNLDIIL
Sequence of Large T antigen (P03070 whole entry): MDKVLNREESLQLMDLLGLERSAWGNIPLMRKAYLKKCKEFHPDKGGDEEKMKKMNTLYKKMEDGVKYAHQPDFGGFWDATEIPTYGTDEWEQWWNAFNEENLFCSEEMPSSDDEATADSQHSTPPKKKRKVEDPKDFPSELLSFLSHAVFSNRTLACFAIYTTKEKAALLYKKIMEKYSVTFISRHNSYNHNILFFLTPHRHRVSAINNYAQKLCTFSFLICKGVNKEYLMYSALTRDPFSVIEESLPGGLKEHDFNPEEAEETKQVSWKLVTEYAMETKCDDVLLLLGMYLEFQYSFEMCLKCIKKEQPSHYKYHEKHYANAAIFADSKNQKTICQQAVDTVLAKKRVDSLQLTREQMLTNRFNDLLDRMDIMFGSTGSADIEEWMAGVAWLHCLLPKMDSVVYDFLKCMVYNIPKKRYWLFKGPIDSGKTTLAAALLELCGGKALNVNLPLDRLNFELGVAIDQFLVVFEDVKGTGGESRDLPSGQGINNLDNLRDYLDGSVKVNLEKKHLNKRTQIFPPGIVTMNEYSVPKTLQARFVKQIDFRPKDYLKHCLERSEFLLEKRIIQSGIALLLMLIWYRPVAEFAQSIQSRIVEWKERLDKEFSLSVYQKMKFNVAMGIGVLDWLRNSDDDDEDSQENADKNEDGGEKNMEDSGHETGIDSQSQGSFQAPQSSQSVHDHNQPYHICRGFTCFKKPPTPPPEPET
Sequence of Genome polyprotein (P29990 2492-3391 limits assumed): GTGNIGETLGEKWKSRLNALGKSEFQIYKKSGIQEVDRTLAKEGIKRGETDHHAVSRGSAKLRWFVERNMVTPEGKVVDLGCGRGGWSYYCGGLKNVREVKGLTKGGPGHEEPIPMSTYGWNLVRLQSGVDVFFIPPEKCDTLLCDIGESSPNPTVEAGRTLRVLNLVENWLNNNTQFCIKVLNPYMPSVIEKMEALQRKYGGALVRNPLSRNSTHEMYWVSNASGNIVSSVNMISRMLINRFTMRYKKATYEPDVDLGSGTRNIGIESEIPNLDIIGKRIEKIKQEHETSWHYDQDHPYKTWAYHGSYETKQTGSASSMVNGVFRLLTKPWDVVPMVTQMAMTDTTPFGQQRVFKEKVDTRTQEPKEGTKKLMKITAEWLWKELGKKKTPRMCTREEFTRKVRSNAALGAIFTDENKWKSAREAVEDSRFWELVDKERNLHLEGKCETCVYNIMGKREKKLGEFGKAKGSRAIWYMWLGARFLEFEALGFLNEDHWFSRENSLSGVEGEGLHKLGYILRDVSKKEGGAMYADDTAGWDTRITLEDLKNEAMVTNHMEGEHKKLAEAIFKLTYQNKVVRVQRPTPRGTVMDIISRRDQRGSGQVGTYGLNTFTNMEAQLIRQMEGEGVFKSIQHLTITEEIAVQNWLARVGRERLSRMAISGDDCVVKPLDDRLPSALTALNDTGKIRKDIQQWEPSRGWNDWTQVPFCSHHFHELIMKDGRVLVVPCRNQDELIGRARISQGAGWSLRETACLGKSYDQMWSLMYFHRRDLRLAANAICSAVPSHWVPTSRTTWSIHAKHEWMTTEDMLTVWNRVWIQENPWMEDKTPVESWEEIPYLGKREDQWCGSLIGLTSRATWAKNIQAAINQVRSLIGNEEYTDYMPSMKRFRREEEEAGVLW

Q: Which EC50 [1] does the source give for CCCCCCCCCCOC(=O)Cn1c(COc2ccccc2)[n+](C)c2ccccc21 here?
A: > 60 µM (not active)

Q: What about the EC50 [2] of the same compound?
A: > 150 µM (not active)

Q: And the EC50 [3]?
A: 7.89 µM (active)

Q: With COc1cc(-c2nnc(SCc3cc(=O)oc4cc(O)c(O)cc34)o2)cc(OC)c1OC as the compound, how does the IC50 [4] read?
A: > 100 µM (active)

Q: And the IC50 [5]?
A: 0.493 µM (active)

Q: What about the EC50 [6] of the same compound?
A: > 38 µM (not active)

Q: And the IC50 [7]?
A: > 119 µM (inactive)

Q: And the IC50 [8]?
A: 2.8 µM (active)

Q: What about the CC50 [9] of the same compound?
A: > 40 µM (active)

Q: With CCOC(=O)c1c(-c2ccc(-c3ccccc3)cc2)csc1NC(=O)CNCCN(C)C as the compound, how does the EC50 [10] read?
A: > 120 µM (not active)

Q: And the AC50 [11]?
A: 8.39 µM (active)

Q: Which results are given for N#Cc1c(NC(=O)c2ccc(Br)o2)n(-c2ccccc2)c2nc3ccccc3nc12?
A: IC50 [12]: 4.55 µM (active); IC50 [13]: 22.9 µM (active); IC50 [14]: 29.1 µM (inactive); IC50 [15]: > 39.8 µM (not active)
